For one assay, the system named is CCR9+ tumor cells. Kind of assay: Transwell migration assay of CCR9+ tumor cells toward CCL25. It counts as cell-based.
The test system of a further assay is MCF7 cells. Kind of assay: Chromium-release cytotoxicity assay, MCF7 cells lysed by survivin-specific T cells. It counts as cell-based, human. The note with it: versus control / CCR9 knockdown. The procedure:
FIG. 1: CCR9 knockdown sensitizes tumor cells to immune attack (A) MCF7 cells were transfected with the described siRNA sequences and harvested after 72 h for mRNA and protein estimation using RT-PCR (upper) and immunoblot (lower) analysis, respectively. GAPDH and beta-actin were used as controls for RNA and protein normalization, respectively. (B) Luc-CTL cytotoxicity assay with PBMC-derived CTLs and bi-specific Ab as effector population and MCF7 as target cells, which were transfected with individual (s1-s4) or pooled CCR9 siRNA sequences. PD-L1 and non-specific control siRNAs were used as positive and negative controls, respectively, for CTL-mediated cytotoxicity. (C, D) Cr-release assay showing % specific lysis of MCF7 cells by survivin-specific T cells at different ratios upon CCR9 knockdown (C) or overexpression (D). MCF7 cells were transfected with either CCR9 siRNA s1 (Δ), pooled siRNA sequences (◯), positive control PD-L1 (□), and non-specific control siRNA (▪) (C) or with pCMV6-AC-His control vector (▪) and pCMV6-AC-His-CCR9 expression construct (∘) (D) 72 h prior to the assay. […] Error bars denote ±SEM, and statistical significance was calculated using the unpaired, two-tailed Student's t-test. […]

On to pertussis toxin, for which, in the assay on CCR9+ tumor cells, the “migration of CCR9+ tumor cells toward CCL25” value is “inhibited”. Further, the “MCF7 lysis by survivin-specific CTL” value with MCF7 cells was “did not elicit elevated tumor lysis”.

The values are drawn from US20190054110A1, “MODULATORS OF CCR9 FOR TREATING TUMOR RESISTANCE TO IMMUNE RESPONSES” (DEUTSCHES KREBSFORSCHUNGSZENTRUM STIFTUNG DES ÖFFENTLICHEN …, priority 2016, published 2019).
